In US20250026757A1, “Bicyclic Compounds for the Control of Invertebrate Pests” (BASF SE, priority 2021, published 2025):

Key:
Format in all cases: in vivo
Anthonomus grandis = assay: Boll weevil (Anthonomus grandis) test, eggs on insect diet in 96-well microtiter plates; conditions: 120 h, egg and larval mortality, 5 days, read-out: mortality in comparison with untreated controls
Method: B.3 Boll Weevil (Anthonomus grandis)
For evaluating control of boll weevil (Anthonomus grandis), the test unit consisted of 96-well-microtiter plates containing an insect diet and 5-10 A. grandis eggs.
The compounds were formulated using a solution containing 75% v/v water and 25% v/v DMSO. Different concentrations of formulated compounds were sprayed onto the insect diet at 5 μl, using a custom-built micro atomizer, at two replications.
After application, microtiter plates were incubated at about 25±1° C. and about 75±5% relative humidity for 5 days. Egg and larval mortality was then visually assessed.

Myzus persicae = assay: Green peach aphid (Myzus persicae) systemic test, artificial diet in 96-well microtiter plates; conditions: 72 h, adult aphids on treated diet, 3 days, read-out: mortality in comparison with untreated controls
Text: B.1 Green Peach Aphid (Myzus persicae)
For evaluating control of green peach aphid (Myzus persicae) through systemic means, the test unit consisted of 96-well-microtiter plates containing liquid artificial diet under an artificial membrane.
The compounds were formulated using a solution containing 75% v/v water and 25% v/v DMSO. Different concentrations of formulated compounds were pipetted into the aphid diet, using a custom built pipetter, at two replications.
After application, 5-8 adult aphids were placed on the artificial membrane inside the microtiter plate wells. The aphids were then allowed to suck on the treated aphid diet and incubated at about 23±1° C. and about 50±5% relative humidity for 3 days. Aphid mortality and fecundity was then visually assessed.

Heliothis virescens = assay: Tobacco budworm (Heliothis virescens) test, eggs on insect diet in 96-well microtiter plates; conditions: 120 h, egg and larval mortality, 5 days, read-out: mortality in comparison with untreated controls
Method: B.2 Tobacco Budworm (Heliothis virescens)
For evaluating control of tobacco budworm (Heliothis virescens), the test unit consisted of 96-well-microtiter plates containing an insect diet and 15-25 H. virescens eggs.
The compounds were formulated using a solution containing 75% v/v water and 25% v/v DMSO. Different concentrations of formulated compounds were sprayed onto the insect diet at 10 μl, using a custom-built micro atomizer, at two replications.
After application, microtiter plates were incubated at about 28±1° C. and about 80±5% relative humidity for 5 days. Egg and larval mortality was then visually assessed.

Aedes aegypti = assay: whole plant or invertebrate; conditions: 48 h, larval mortality, 2 days, read-out: mortality in comparison with untreated controls
Method: B.5 Yellow Fever Mosquito (Aedes aegypti)
For evaluating control of yellow fever mosquito (Aedes aegypti) the test unit consisted of 96-well-microtiter plates containing 200 μl of tap water per well and 5-15 freshly hatched A. aegypti larvae.
The active compounds were formulated using a solution containing 75% (v/v) water and 25% (v/v) DMSO. Different concentrations of formulated compounds or mixtures were sprayed onto the insect diet at 2.5 μl, using a custom-built micro atomizer, at two replications.
After application, microtiter plates were incubated at 28±1° C., 80±5% RH for 2 days. Larval mortality was then visually assessed.

Spodoptera eridania = assay: Southern armyworm (Spodoptera eridania), 2nd instar larvae, foliar spray on lima bean plants; conditions: 96 h, 2nd instar larvae on sprayed lima bean, 4 days after treatment, read-out: mortality in comparison with untreated controls
Method: B.4. Southern Armyworm (Spodoptera eridania), 2nd Instar Larvae
The active compounds were formulated by a Tecan liquid handler in 100% cyclohexanone as a 10,000-ppm solution supplied in tubes. The 10,000-ppm solution was serially diluted in 100% cyclohexanone to make interim solutions. These served as stock solutions for which final dilutions were made by the Tecan in 50% acetone:50% water (v/v) into 10 or 20 ml glass vials. A non-ionic surfactant (Kinetic®) was included in the solution at a volume of 0.01% (v/v). The vials were then inserted into an automated electrostatic sprayer equipped with an atomizing nozzle for application to plants/insects. Lima bean plants (variety Sieva) were grown 2 plants to a pot and selected for treatment at the 1st true leaf stage. Test solutions were sprayed onto the foliage by an automated electrostatic plant sprayer equipped with an atomizing spray nozzle. The plants were dried in the sprayer fume hood and then removed from the sprayer. Each pot was placed into perforated plastic bags with a zip closure. Ten to 11 armyworm larvae were placed into the bag and the bags zipped closed. Test plants were maintained in a growth room at about 25° C. and about 20-40% relative humidity for 4 days, avoiding direct exposure to fluorescent light (14:10 light:dark photoperiod) to prevent trapping of heat inside the bags. Mortality and reduced feeding were assessed 4 days after treatment, compared to untreated control plants.

CCS(=O)(=O)c1cc(Br)cnc1-c1cc(=O)n2c(cc(C(F)(F)F)n2C)n1 [Compound I-1, 5-(5-bromo-3-ethylsulfonyl-2-pyridyl)-1-methyl-2-(trifluoromethyl)pyrazolo[1,5-a]pyrimidin-7-one]
≥ 75%: mortality at 2500 ppm (Anthonomus grandis) | mortality at 2500 ppm (Myzus persicae) | mortality at 2500 ppm (Heliothis virescens) | mortality at 2500 ppm (Aedes aegypti)

CCS(=O)(=O)c1cc(N=S(C)(C)=O)cnc1-c1cc(=O)n2c(cc(C(F)(F)F)n2C)n1 [Compound I-2, 5-[5-[[dimethyl(oxo)-λ6-sulfanylidene]amino]-3-ethylsulfonyl-2-pyridyl]-1-methyl-2-(trifluoromethyl)pyrazolo[1,5-a]pyrimidin-7-one]
≥ 75%: mortality at 2500 ppm (Anthonomus grandis) | mortality at 2500 ppm (Myzus persicae) | mortality at 2500 ppm (Aedes aegypti)

CCS(=O)(=O)c1cc(-c2ccc(F)cc2)cnc1-c1cc(=O)n2c(cc(C(F)(F)F)n2C)n1 [Compound I-3, 5-[3-ethylsulfonyl-5-(4-fluorophenyl)-2-pyridyl]-1-methyl-2-(trifluoro-methyl)pyrazolo[1,5-a]pyrimidin-7-one]
≥ 75%: mortality at 2500 ppm (Anthonomus grandis) | mortality at 2500 ppm (Myzus persicae) | mortality at 2500 ppm (Heliothis virescens) | mortality at 2500 ppm (Aedes aegypti) | mortality at 300 ppm (Spodoptera eridania)

CCS(=O)(=O)c1cc(-c2ccc(OC(F)F)cc2)cnc1-c1cc(=O)n2c(cc(C(F)(F)F)n2C)n1 [Compound I-4, 5-[5-[4-(difluoromethoxy)phenyl]-3-ethylsulfonyl-2-pyridyl]-1-methyl-2-(trifluoromethyl)pyrazolo[1,5-a]pyrimidin-7-one]
≥ 75%: mortality at 2500 ppm (Anthonomus grandis) | mortality at 2500 ppm (Myzus persicae) | mortality at 2500 ppm (Heliothis virescens) | mortality at 2500 ppm (Aedes aegypti) | mortality at 300 ppm (Spodoptera eridania)

CCS(=O)(=O)c1cc(Br)ccc1-c1cc(=O)n2c(cc(C(F)(F)F)n2C)n1 [Compound I-7, 5-(4-bromo-2-ethylsulfonyl-phenyl)-1-methyl-2-(trifluoromethyl)pyrazolo[1,5-a]pyrimidin-7-one]
≥ 75%: mortality at 2500 ppm (Myzus persicae) | mortality at 2500 ppm (Aedes aegypti) | mortality at 300 ppm (Spodoptera eridania)

CCS(=O)(=O)c1cc(Br)cnc1-c1nc2cc(C(F)(F)F)n(C)n2c(=O)c1C [Compound I-16, 5-(5-bromo-3-ethylsulfonyl-2-pyridyl)-1,6-dimethyl-2-(trifluoromethyl)pyrazolo[1,5-a]pyrimidin-7-one]
≥ 75%: mortality at 2500 ppm (Anthonomus grandis) | mortality at 2500 ppm (Myzus persicae)
